The supplement of paper PMC10307832

Columns and labels:
Assay in all cases: relative viability (nuclei count vs DMSO), 5 days (fraction); higher = more cells survive
[1] = system: ChaGo-K-1
Outline: (§1)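 Lung cancer cell lines were pin-tool dosed in 1536-well plates on the day after seeding, with either a lone drug or a fixed anchor-drug dose plus five library-drug doses (not always all listed) in √10 steps. Nuclei were counted on 4× images after 5 days. Relative viability is the ratio of treated-well to vehicle-well nuclei counts, with each value a median of duplicate plates.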

[2] = system: EPLC-272H
Outline: as §1

[3] = system: HCC-827
Outline: as §1

[4] = system: HOP-62
Outline: as §1

[5] = system: LOU-NH91
Outline: as §1

[6] = system: LXF-289
Outline: as §1

[7] = system: NCI-H1395
Outline: as §1

[8] = system: NCI-H1651
Outline: as §1

[9] = system: NCI-H1755
Outline: as §1

[10] = system: NCI-H1793
Outline: as §1

[11] = system: NCI-H2126
Outline: as §1

[12] = system: NCI-H2170
Outline: as §1

[13] = system: NCI-H2228
Outline: as §1

[14] = system: NCI-H2347
Outline: as §1

[15] = system: NCI-H23
Outline: as §1

[16] = system: NCI-H322M
Outline: as §1

[17] = system: NCI-H441
Outline: as §1

[18] = system: NCI-H596
Outline: as §1

[19] = system: NCI-H647
Outline: as §1

[20] = system: PC-3 [JPC-3]
Outline: as §1

[21] = system: RERF-LC-KJ
Outline: as §1

[22] = system: LCLC-103H
Outline: as §1

[23] = system: NCI-H358
Outline: as §1

[24] = system: NCI-H650
Outline: as §1

## Nc1cccc2c1CN(C1CCC(=O)NC1=O)C2=O (configuration not stated) [Lenalidomide] + CC1(C)CCC(c2ccc(Cl)cc2)=C(CN2CCN(c3ccc(C(=O)NS(=O)(=O)c4ccc(N[C@H](CCN5CCOCC5)CSc5ccccc5)c(S(=O)(=O)C(F)(F)F)c4)cc3)CC2)C1 [Navitoclax] (partner 0.5 µM)
[1]; first compound 0.253 µM
  relative viability: 1.08
[1]; first compound 2.53 µM
  relative viability: 1.05
[1]; first compound 8 µM
  relative viability: 0.949
[2]; first compound 0.253 µM
  relative viability: 1.24
[2]; first compound 2.53 µM
  relative viability: 0.917
[2]; first compound 8 µM
  relative viability: 0.741
[3]; first compound 0.253 µM
  relative viability: 1.06
[3]; first compound 0.8 µM
  relative viability: 0.977
[3]; first compound 2.53 µM
  relative viability: 1.01
[3]; first compound 8 µM
  relative viability: 1.07
[4]; first compound 0.253 µM
  relative viability: 1.07
[4]; first compound 0.8 µM
  relative viability: 0.985
[4]; first compound 2.53 µM
  relative viability: 0.944
[4]; first compound 8 µM
  relative viability: 1.04
[5]; first compound 0.253 µM
  relative viability: 0.614
[5]; first compound 0.8 µM
  relative viability: 0.631
[5]; first compound 2.53 µM
  relative viability: 0.673
[5]; first compound 8 µM
  relative viability: 0.692
[6]; first compound 0.253 µM
  relative viability: 0.963
[6]; first compound 0.8 µM
  relative viability: 0.971
[6]; first compound 2.53 µM
  relative viability: 1.01
[6]; first compound 8 µM
  relative viability: 1.06
[7]; first compound 0.253 µM
  relative viability: 1.2
[7]; first compound 2.53 µM
  relative viability: 1.31
[7]; first compound 8 µM
  relative viability: 0.978
[8]; first compound 0.253 µM
  relative viability: 1.04
[8]; first compound 0.8 µM
  relative viability: 0.931
[8]; first compound 2.53 µM
  relative viability: 1.25
[8]; first compound 8 µM
  relative viability: 0.898
[9]; first compound 0.253 µM
  relative viability: 0.994
[9]; first compound 0.8 µM
  relative viability: 1.01
[9]; first compound 2.53 µM
  relative viability: 1.01
[9]; first compound 8 µM
  relative viability: 0.745
[10]; first compound 0.253 µM
  relative viability: 0.349
[10]; first compound 0.8 µM
  relative viability: 0.449
[10]; first compound 2.53 µM
  relative viability: 0.426
[10]; first compound 8 µM
  relative viability: 0.315
[11]; first compound 0.253 µM
  relative viability: 0.798
[11]; first compound 0.8 µM
  relative viability: 0.907
[11]; first compound 2.53 µM
  relative viability: 0.815
[11]; first compound 8 µM
  relative viability: 0.688
[12]; first compound 0.253 µM
  relative viability: 0.552
[12]; first compound 0.8 µM
  relative viability: 0.595
[12]; first compound 2.53 µM
  relative viability: 0.593
[12]; first compound 8 µM
  relative viability: 0.481
[13]; first compound 0.253 µM
  relative viability: 0.821
[13]; first compound 0.8 µM
  relative viability: 0.711
[13]; first compound 2.53 µM
  relative viability: 0.949
[13]; first compound 8 µM
  relative viability: 0.905
[14]; first compound 0.253 µM
  relative viability: 0.788
[14]; first compound 0.8 µM
  relative viability: 0.747
[14]; first compound 2.53 µM
  relative viability: 0.842
[14]; first compound 8 µM
  relative viability: 0.721
[15]; first compound 0.253 µM
  relative viability: 0.876
[15]; first compound 0.8 µM
  relative viability: 0.917
[15]; first compound 2.53 µM
  relative viability: 0.999
[15]; first compound 8 µM
  relative viability: 0.649
[16]; first compound 0.253 µM
  relative viability: 1
[16]; first compound 0.8 µM
  relative viability: 1.42
[16]; first compound 2.53 µM
  relative viability: 1.17
[16]; first compound 8 µM
  relative viability: 0.965
[17]; first compound 0.253 µM
  relative viability: 0.507
[17]; first compound 0.8 µM
  relative viability: 0.348
[17]; first compound 2.53 µM
  relative viability: 0.52
[17]; first compound 8 µM
  relative viability: 0.513
[18]; first compound 0.253 µM
  relative viability: 0.951
[18]; first compound 0.8 µM
  relative viability: 0.795
[18]; first compound 2.53 µM
  relative viability: 0.989
[18]; first compound 8 µM
  relative viability: 0.879
[19]; first compound 0.253 µM
  relative viability: 1.08
[19]; first compound 0.8 µM
  relative viability: 1.11
[19]; first compound 2.53 µM
  relative viability: 1.4
[19]; first compound 8 µM
  relative viability: 1.04
[20]; first compound 0.253 µM
  relative viability: 0.752
[20]; first compound 0.8 µM
  relative viability: 0.771
[20]; first compound 2.53 µM
  relative viability: 0.863
[20]; first compound 8 µM
  relative viability: 0.734
[21]; first compound 0.253 µM
  relative viability: 0.959
[21]; first compound 0.8 µM
  relative viability: 0.736
[21]; first compound 2.53 µM
  relative viability: 1.02
[21]; first compound 8 µM
  relative viability: 1.09

## Nc1cccc2c1CN(C1CCC(=O)NC1=O)C2=O (configuration not stated) [Lenalidomide] + CS(=O)(=O)N1CCN(Cc2cc3nc(-c4cccc5[nH]ncc45)nc(N4CCOCC4)c3s2)CC1 [Pictilisib] (partner 1 µM)
[1]; first compound 0.253 µM
  relative viability: 0.791
[1]; first compound 2.53 µM
  relative viability: 0.739
[1]; first compound 8 µM
  relative viability: 0.625
[2]; first compound 0.253 µM
  relative viability: 0.325
[2]; first compound 2.53 µM
  relative viability: 0.361
[2]; first compound 8 µM
  relative viability: 0.274
[3]; first compound 0.253 µM
  relative viability: 1.03
[3]; first compound 0.8 µM
  relative viability: 1.11
[3]; first compound 2.53 µM
  relative viability: 0.925
[3]; first compound 8 µM
  relative viability: 0.834
[4]; first compound 0.253 µM
  relative viability: 0.627
[4]; first compound 0.8 µM
  relative viability: 0.834
[4]; first compound 2.53 µM
  relative viability: 0.922
[4]; first compound 8 µM
  relative viability: 0.535
[22]; first compound 0.253 µM
  relative viability: 0.603
[22]; first compound 0.8 µM
  relative viability: 0.547
[22]; first compound 2.53 µM
  relative viability: 0.621
[22]; first compound 8 µM
  relative viability: 0.556
[5]; first compound 0.253 µM
  relative viability: 0.534
[5]; first compound 0.8 µM
  relative viability: 0.451
[5]; first compound 2.53 µM
  relative viability: 0.445
[5]; first compound 8 µM
  relative viability: 0.502
[6]; first compound 0.253 µM
  relative viability: 0.835
[6]; first compound 0.8 µM
  relative viability: 0.827
[6]; first compound 2.53 µM
  relative viability: 0.864
[6]; first compound 8 µM
  relative viability: 0.845
[7]; first compound 0.253 µM
  relative viability: 0.682
[7]; first compound 2.53 µM
  relative viability: 0.647
[7]; first compound 8 µM
  relative viability: 0.569
[8]; first compound 0.253 µM
  relative viability: 0.674
[8]; first compound 0.8 µM
  relative viability: 0.574
[8]; first compound 2.53 µM
  relative viability: 0.735
[8]; first compound 8 µM
  relative viability: 0.691
[9]; first compound 0.253 µM
  relative viability: 0.407
[9]; first compound 0.8 µM
  relative viability: 0.322
[9]; first compound 2.53 µM
  relative viability: 0.521
[9]; first compound 8 µM
  relative viability: 0.325
[10]; first compound 0.253 µM
  relative viability: 0.554
[10]; first compound 0.8 µM
  relative viability: 0.289
[10]; first compound 2.53 µM
  relative viability: 0.409
[10]; first compound 8 µM
  relative viability: 0.228
[11]; first compound 0.253 µM
  relative viability: 0.501
[11]; first compound 0.8 µM
  relative viability: 0.423
[11]; first compound 2.53 µM
  relative viability: 0.458
[11]; first compound 8 µM
  relative viability: 0.421
[12]; first compound 0.253 µM
  relative viability: 0.344
[12]; first compound 0.8 µM
  relative viability: 0.264
[12]; first compound 2.53 µM
  relative viability: 0.342
[12]; first compound 8 µM
  relative viability: 0.259
[13]; first compound 0.253 µM
  relative viability: 0.42
[13]; first compound 0.8 µM
  relative viability: 0.714
[13]; first compound 2.53 µM
  relative viability: 0.724
[13]; first compound 8 µM
  relative viability: 0.355
[14]; first compound 0.253 µM
  relative viability: 0.396
[14]; first compound 0.8 µM
  relative viability: 0.634
[14]; first compound 2.53 µM
  relative viability: 0.602
[14]; first compound 8 µM
  relative viability: 0.49
[15]; first compound 0.253 µM
  relative viability: 0.372
[15]; first compound 0.8 µM
  relative viability: 0.576
[15]; first compound 2.53 µM
  relative viability: 0.523
[15]; first compound 8 µM
  relative viability: 0.378
[16]; first compound 0.253 µM
  relative viability: 0.511
[16]; first compound 0.8 µM
  relative viability: 0.596
[16]; first compound 2.53 µM
  relative viability: 0.546
[16]; first compound 8 µM
  relative viability: 0.49
[23]; first compound 0.253 µM
  relative viability: 0.399
[23]; first compound 0.8 µM
  relative viability: 0.428
[23]; first compound 2.53 µM
  relative viability: 0.384
[23]; first compound 8 µM
  relative viability: 0.302
[17]; first compound 0.253 µM
  relative viability: 0.383
[17]; first compound 0.8 µM
  relative viability: 0.453
[17]; first compound 2.53 µM
  relative viability: 0.522
[17]; first compound 8 µM
  relative viability: 0.433
[18]; first compound 0.253 µM
  relative viability: 0.382
[18]; first compound 0.8 µM
  relative viability: 0.359
[18]; first compound 2.53 µM
  relative viability: 0.381
[18]; first compound 8 µM
  relative viability: 0.365
[19]; first compound 0.253 µM
  relative viability: 0.417
[19]; first compound 2.53 µM
  relative viability: 0.535
[19]; first compound 8 µM
  relative viability: 0.281
[24]; first compound 0.253 µM
  relative viability: 0.822
[24]; first compound 2.53 µM
  relative viability: 0.911
[24]; first compound 8 µM
  relative viability: 0.739
[20]; first compound 0.253 µM
  relative viability: 0.781
[20]; first compound 0.8 µM
  relative viability: 0.609
[20]; first compound 2.53 µM
  relative viability: 0.98
[20]; first compound 8 µM
  relative viability: 0.734
[21]; first compound 0.253 µM
  relative viability: 0.494
[21]; first compound 0.8 µM
  relative viability: 0.46
[21]; first compound 2.53 µM
  relative viability: 0.543
[21]; first compound 8 µM
  relative viability: 0.534
